Our source for the GI50 and TGI values is PubChem BioAssay (NCI).

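1) Cells in 96-well plates. 2) Compound, 48 h, 5 concentrations. 3) Linear interpolation between surrounding doses. 4) Unreached endpoint = highest concentration. Here, GI50 denotes the concentration required for 50% inhibition of growth. Definition used: TGI = concentration required for complete inhibition of growth.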

Test systems include CCRF-CEM leukemia; TK-10 renal; NCI/ADR-RES ovarian; NCI-H23 lung; IGROV1 ovarian; A498 renal; MALME-3M melanoma; U251 CNS; SK-MEL-28 melanoma; SNB-19 CNS.
Assay in all cases: NCI anticancer screen, dose series, 48 h

For `NC(N)=N/N=C/c1ccc(-c2ccc(-c3cc(Cl)cc(Cl)c3)s2)cc1`, the GI50 is 1.65 µM with CCRF-CEM leukemia; 1.71 µM in the assay with TK-10 renal; 2 µM with NCI/ADR-RES ovarian; 1.9 µM with NCI-H23 lung; 1.68 µM in the assay on IGROV1 ovarian; 1.25 µM with A498 renal. Also, the GI50 was 1.72 µM in the assay with MALME-3M melanoma, 1.89 µM in the assay with U251 CNS, 1.8 µM in the assay on SK-MEL-28 melanoma and 1.85 µM in the assay with SNB-19 CNS. Moreover, the TGI with CCRF-CEM leukemia was 4.62 µM; in the assay with TK-10 renal it was 3.54 µM; in the assay with NCI/ADR-RES ovarian it was 4.33 µM; in the assay with NCI-H23 lung, 3.88 µM; in the assay on IGROV1 ovarian, 3.36 µM; in the assay with A498 renal, 2.55 µM. Also, the TGI in the assay with MALME-3M melanoma was 3.42 µM; with U251 CNS, 4.04 µM; in the assay on SK-MEL-28 melanoma it was 3.51 µM; in the assay with SNB-19 CNS, 3.73 µM.

With `CC(=O)c1cc(C(=O)c2ccc3c(c2)Sc2ccccc2N3)c2cc(C)ccn12`, the GI50 in the assay on CCRF-CEM leukemia was 0.257 µM; in the assay with TK-10 renal, more than 100 µM; with NCI/ADR-RES ovarian it was 0.0369 µM; in the assay on NCI-H23 lung, 0.237 µM; with IGROV1 ovarian it was 0.122 µM; in the assay on A498 renal, 0.0431 µM. The GI50 in the assay with MALME-3M melanoma was 0.0429 µM; in the assay on U251 CNS, 0.138 µM; in the assay on SK-MEL-28 melanoma, 6.79 µM; in the assay on SNB-19 CNS, 0.183 µM. The TGI in the assay on CCRF-CEM leukemia, with TK-10 renal, in the assay with NCI/ADR-RES ovarian, in the assay on NCI-H23 lung, in the assay on IGROV1 ovarian and with A498 renal was more than 100 µM throughout. The TGI in the assay with MALME-3M melanoma, in the assay on U251 CNS, in the assay on SK-MEL-28 melanoma and in the assay on SNB-19 CNS was more than 100 µM each time.

With `COc1ccc(C2C=C(c3ccc4c(c3)OCO4)Oc3c2c(=O)oc2ccccc32)cc1OC` (stereo not given), the TGI is more than 100 µM in the assay with CCRF-CEM leukemia; more than 78.1 µM with TK-10 renal; more than 100 µM in the assay on NCI/ADR-RES ovarian; more than 46.2 µM in the assay on NCI-H23 lung; more than 100 µM in the assay with IGROV1 ovarian; 7.21 µM in the assay with A498 renal. The TGI with MALME-3M melanoma, with U251 CNS, in the assay on SK-MEL-28 melanoma and in the assay on SNB-19 CNS was more than 100 µM in each case.

With `COc1ccc(Nc2cc(C)nc(NCCCNc3ccnc4cc(Cl)ccc34)n2)cc1`, the GI50 with CCRF-CEM leukemia was 1.31 µM; in the assay on TK-10 renal it was 1.89 µM; in the assay with NCI/ADR-RES ovarian it was 2.38 µM; in the assay on NCI-H23 lung it was 2.27 µM; in the assay with IGROV1 ovarian, 2.25 µM; with A498 renal, 1.49 µM. Moreover, the GI50 was 2.07 µM in the assay on MALME-3M melanoma, 1.39 µM with U251 CNS, 1.65 µM in the assay with SK-MEL-28 melanoma and 3.48 µM in the assay on SNB-19 CNS. Besides, the TGI amounted to 6.49 µM in the assay on CCRF-CEM leukemia; 3.41 µM with TK-10 renal; 6.27 µM with NCI/ADR-RES ovarian; 5.78 µM in the assay with NCI-H23 lung; 6.09 µM in the assay with IGROV1 ovarian; 3.39 µM with A498 renal. For the same compound, the TGI in the assay on MALME-3M melanoma was determined as 3.94 µM; in the assay on U251 CNS, 2.8 µM; with SK-MEL-28 melanoma, 3.16 µM; with SNB-19 CNS it was 13.4 µM.

For `Cn1c(NCC(O)CN2CCCC2)cc(=O)n(C)c1=O` (stereo not given), the GI50 in the assay on CCRF-CEM leukemia, with TK-10 renal, in the assay on NCI/ADR-RES ovarian, in the assay with NCI-H23 lung, with IGROV1 ovarian and with A498 renal was more than 100 µM throughout. Besides, the GI50 in the assay with MALME-3M melanoma, in the assay on U251 CNS, in the assay on SK-MEL-28 melanoma and in the assay on SNB-19 CNS was more than 100 µM throughout. The TGI in the assay with CCRF-CEM leukemia, in the assay with TK-10 renal, in the assay on NCI/ADR-RES ovarian, with NCI-H23 lung, in the assay with IGROV1 ovarian and with A498 renal was more than 100 µM throughout. Also, the TGI with MALME-3M melanoma, with U251 CNS, in the assay with SK-MEL-28 melanoma and with SNB-19 CNS was more than 100 µM in each case.

On to `O=C(O)c1ccc(C(=O)O)c(C(=O)Nc2ccc3c(c2)C(=O)c2ccccc2-3)c1`, for which the TGI in the assay with CCRF-CEM leukemia, in the assay on TK-10 renal, in the assay on NCI/ADR-RES ovarian, in the assay on NCI-H23 lung, with IGROV1 ovarian and in the assay on A498 renal was more than 100 µM each time. Also, the TGI in the assay on MALME-3M melanoma, in the assay with U251 CNS, in the assay with SK-MEL-28 melanoma and in the assay with SNB-19 CNS was more than 100 µM each time.
